Eight compounds from patent US20230107642A1 (Erasca, Inc., priority 2020, published 2023) can be followed below.

One assay addresses T1, Cys12 of the KRAS 4B G12C protein (Homo sapiens, UniProt P01116, G12C).
T1 construct: This protein contained 188 amino acids in total, including an N-terminal 6-Histidine tag; made in house; host or cells: E. coli BL21
Put plainly: In vitro covalent adduct formation (CAF) assay, LC-MS intact mass. The assay is classed as binding. The settings on record: 10 uM compound, 60 min. The gist of the method: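 GDP-loaded (>95%) His-TEV-tagged KRAS 4B G12C (residues 1–169), 5 μM in TBS pH 7.4, incubated with 10 μM compound (4% DMSO) at 22° C for one hour. Intact-protein LC-MS gave free:adduct ratios, reported as percent protein modified; duplicate runs.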
In the case of `C=CC(=O)N1[C@H](C)CN(c2nc(=O)n3c4c(c(-c5cc(Cl)c(F)cc5F)c(C(F)(F)F)cc24)SC[C@@H]3CN2C[C@@H]3C[C@H]2CO3)C[C@@H]1C` (atropisomer, axis not shown) [Example 1331, (3S,10R)-3-(((1S,4S)-2-oxa-5-azabicyclo[2.2.1]heptan-5-yl)methyl)-7-((3S,5R)-4-acryloyl-3,5-dimethylpiperazin-1-yl)-10-(5-chloro-2,4-difluorophenyl)-9-(trifluoromethyl)-2,3-dihydro-5H-[1,4]thiazino[2,3,4-ij]quinazolin-5-one], the “% CAF 10 uM @ 60 min” value is reported as 94.5%.

In the case of `C=CC(=O)N1[C@H](C)CN(c2nc(=O)n3c4c(c(-c5ccc(F)cc5)c(C(F)(F)F)cc24)SC[C@@H](COC)C3)C[C@@H]1C` [Example 1407, (R)-8-((3S,5R)-4-acryloyl-3,5-dimethylpiperazin-1-yl)-11-(4-fluorophenyl)-3-(methoxymethyl)-10-(trifluoromethyl)-3,4-dihydro-2H,6H-[1,4]thiazepino[2,3,4-ij]quinazolin-6-one], the “% CAF 10 uM @ 60 min” value is listed as 92.7%.

Regarding `C=CC(=O)N1C2COCC1CN(c1nc(=O)n3c4c(c(-c5ccc(F)cc5)c(C(F)(F)F)cc14)SC[C@@H]3COC)C2` [Example 1384, (3S)-7-(9-acryloyl-3-oxa-7,9-diazabicyclo[3.3.1]nonan-7-yl)-10-(4-fluorophenyl)-3-(methoxymethyl)-9-(trifluoromethyl)-2,3-dihydro-5H-[1,4]thiazino[2,3,4-ij]quinazolin-5-one], the “% CAF 10 uM @ 60 min” value is recorded as 77.8%.

As for `C=CC(=O)N1C[C@H](C)N(c2nc(=O)n3c4c(c(-c5ccc(F)cc5F)c(C(F)(F)F)cc24)SC[C@@H]3CN2C[C@@H]3C[C@H]2CO3)C[C@H]1C` (atropisomer, axis not shown) [Example 1322, (3S,10S)-3-(((1S,4S)-2-oxa-5-azabicyclo[2.2.1]heptan-5-yl)methyl)-7-((2S,5R)-4-acryloyl-2,5-dimethylpiperazin-1-yl)-10-(2,4-difluorophenyl)-9-(trifluoromethyl)-2,3-dihydro-5H-[1,4]thiazino[2,3,4-ij]quinazolin-5-one], the “% CAF 10 uM @ 60 min” value was 96.2%.

Regarding “(3S,10R)-7-((2S,5R)-4-acryloyl-2,5-dimethylpiperazin-1-yl)-10-(5-chloro-2,4-difluorophenyl)-3-((4-cyclopropylpiperazin-1-yl)methyl)-9-(trifluoromethyl)-2,3-dihydro-5H-[1,4]thiazino[2,3,4-ij]quinazolin-5-one [Example 1360]”, the “% CAF 10 uM @ 60 min” value was found to be 92.8%.

Take `C=CC(=O)N1[C@H](C)CN(c2nc(=O)n3c4c(c(-c5cc(Cl)c(F)cc5F)c(C(F)(F)F)cc24)SC[C@@H]3CN2C[C@@H]3C[C@H]2CO3)C[C@@H]1C` [Example 1302, (3S)-3-(((1S,4S)-2-oxa-5-azabicyclo[2.2.1]heptan-5-yl)methyl)-7-((3S,5R)-4-acryloyl-3,5-dimethylpiperazin-1-yl)-10-(5-chloro-2,4-difluorophenyl)-9-(trifluoromethyl)-2,3-dihydro-5H-[1,4]thiazino[2,3,4-ij]quinazolin-5-one]: the “% CAF 10 uM @ 60 min” value came to 78.9%.

With `[2H]C([2H])([2H])OC[C@H]1CSc2c(-c3ccc(F)cc3F)c(C(F)(F)F)cc3c(N4C[C@@H](C)N(C(=O)C=C)[C@@H](C)C4)nc(=O)n1c23` (atropisomer, axis not shown) [Example 1424, (3S,10S)-7-((3S,5R)-4-acryloyl-3,5-dimethylpiperazin-1-yl)-10-(2,4-difluorophenyl)-3-((methoxy-d3)methyl)-9-(trifluoromethyl)-2,3-dihydro-5H-[1,4]thiazino[2,3,4-ij]quinazolin-5-one], the “% CAF 10 uM @ 60 min” value was found to be 95.4%.

Staying with this assay, now noted: after 60 min.
For `C=CC(=O)N1CCN(c2nc(=O)n3c4c(c(-c5ccc(F)cc5)c(C(F)(F)F)cc24)SC[C@@H](OCOC)C3)CC1` [Example 1004, (S)-8-(4-acryloylpiperazin-1-yl)-11-(4-fluorophenyl)-3-(methoxymethoxy)-10-(trifluoromethyl)-3,4-dihydro-2H,6H-[1,4]thiazepino[2,3,4-ij]quinazolin-6-one], the “CAF (% binding after 60 min)” value turned out to be 97%.
